Laboratory results published in US12606561B2, “Substituted pyrazolo[1,5-a][1,3,5]triazines as CDK inhibitors” (QURIENT CO., LTD., priority 2018, dated 2026).

What was measured:
CDK2/Cyclin A = target: T1, CDK2/Cyclin A (Homo sapiens, UniProt P24941); assay: Enzymatic assay for CDK2 (LANCE Ultra kinase assay, FRET based); format: biochemical; conditions: ATP at Km
T1 construct: purchased Invitrogen PV6290
In short: (§1)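 TR-FRET kinase assay at ATP Km with ULight-MBP peptide (68 nM) and Eu-anti-phospho-MBP antibody; CDK2/Cyclin A at […], CDK5/p25 at […]. 8-dose 4-fold compound dilutions; 60 min kinase reaction at 23° C., EDTA stop, 60 min detection, read at 615/665 nm.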

A2780 = A2780 viability assay (CellTiter-Glo, 72 hours); format: cell-based; conditions: Homo sapiens; A2780 cells
Description: (§2) Human […] cell line, MV4-11_(ATCC, Cat #CRL-9591), NSCLC (Non-small cell lung cancer) cell line H460 (ATCC, Cat #HTB-177), A2780 (ECACC, Cat #93112519) and OVCAR-3(ATCC, Cat #HTB-161) were obtained from ATCC. Cells were grown in RPMI-1640 media (Invitrogen, Cat #22400-089) supplemented with 10% FBS (Invitrogen, Cat #10099141) and 1% penicillin/streptomycin (Invitrogen, Cat #15070063) and cultured at 37° C., 5% CO2 in a humidified chamber. All cell lines were routinely tested for mycoplasma.
(§3) To effect of the CDK7 inhibitor to inhibit the growth of target cancer cells, viability assay were conducted a 72 hour time period. Briefly, the candidate cell line was plated in 96 well plate at the following density of cells respectively. 1×10^4 cells/well for MV4-11, 5×10^3 for H460 and OVCAR-3, and 1×10^3 for A2780. After 24 hours, the cells were treated with various concentrations of the compound (ranging from 0.0015 uM to 10 uM). DMSO solvent without compound served as a control and final DMSO concentration lest than 0.1%. After 72 hours of incubation at 37° C., 5% CO2 incubator, cells were analyzed for the viability using the CellTiter-Glo Luminescent Cell Viability Assay (Promega, Cat #G7570). All viability assays were performed in duplicate and Luminescence was read using an Envision (Perkin Elmer, USA). Data was analyzed using XLfit software.

CDK7/Cyclin H/MNAT1 = target: T2, CDK7/Cyclin H/MNAT1 (Homo sapiens, UniProt P50613); assay: Enzymatic assay for CDK7 (LANCE Ultra kinase assay, FRET based); format: biochemical; conditions: for IC50: ATP at Km
T2 construct: purchased Invitrogen PR6749B
T2 sequence (P50613 whole entry): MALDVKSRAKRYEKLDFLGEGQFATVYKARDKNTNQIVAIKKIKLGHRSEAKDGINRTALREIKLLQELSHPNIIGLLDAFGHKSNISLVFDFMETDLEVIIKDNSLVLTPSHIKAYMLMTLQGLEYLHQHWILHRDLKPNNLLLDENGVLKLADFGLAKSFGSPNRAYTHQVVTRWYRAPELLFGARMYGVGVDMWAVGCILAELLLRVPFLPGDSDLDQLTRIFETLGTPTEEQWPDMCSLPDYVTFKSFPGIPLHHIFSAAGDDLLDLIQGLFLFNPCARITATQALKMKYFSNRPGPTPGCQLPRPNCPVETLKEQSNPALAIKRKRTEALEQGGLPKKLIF
T2 sequence (P51946 whole entry partner): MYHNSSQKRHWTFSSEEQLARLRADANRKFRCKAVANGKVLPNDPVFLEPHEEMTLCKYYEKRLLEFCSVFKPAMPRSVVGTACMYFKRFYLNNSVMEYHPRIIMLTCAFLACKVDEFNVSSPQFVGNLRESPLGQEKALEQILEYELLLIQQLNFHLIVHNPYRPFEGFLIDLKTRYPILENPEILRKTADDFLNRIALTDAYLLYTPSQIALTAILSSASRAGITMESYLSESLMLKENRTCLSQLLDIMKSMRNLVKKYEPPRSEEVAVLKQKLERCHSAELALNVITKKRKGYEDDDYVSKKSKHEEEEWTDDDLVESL
T2 sequence (P51948 whole entry partner): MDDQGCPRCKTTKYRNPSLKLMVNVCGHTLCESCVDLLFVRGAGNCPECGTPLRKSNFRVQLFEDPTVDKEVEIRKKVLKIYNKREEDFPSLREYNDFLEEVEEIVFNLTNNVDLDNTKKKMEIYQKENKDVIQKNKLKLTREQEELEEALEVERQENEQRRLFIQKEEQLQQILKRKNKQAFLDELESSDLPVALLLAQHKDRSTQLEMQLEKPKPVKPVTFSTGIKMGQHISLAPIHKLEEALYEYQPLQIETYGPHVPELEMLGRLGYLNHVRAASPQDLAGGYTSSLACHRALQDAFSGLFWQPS
In short: (§4)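 FRET read-out: Eu-labeled anti-phospho-antibody binding a phosphorylated ULight peptide. Purified CDK–cyclin complex, ATP at Km.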

CDK5/p25 = target: T3, CDK5/p25 (Homo sapiens, UniProt Q00535); assay: Enzymatic assay for CDK5 (LANCE Ultra kinase assay, FRET based); format: biochemical; conditions: ATP at Km
T3 construct: purchased Invitrogen PR8543B
T3 sequence (Q00535 whole entry): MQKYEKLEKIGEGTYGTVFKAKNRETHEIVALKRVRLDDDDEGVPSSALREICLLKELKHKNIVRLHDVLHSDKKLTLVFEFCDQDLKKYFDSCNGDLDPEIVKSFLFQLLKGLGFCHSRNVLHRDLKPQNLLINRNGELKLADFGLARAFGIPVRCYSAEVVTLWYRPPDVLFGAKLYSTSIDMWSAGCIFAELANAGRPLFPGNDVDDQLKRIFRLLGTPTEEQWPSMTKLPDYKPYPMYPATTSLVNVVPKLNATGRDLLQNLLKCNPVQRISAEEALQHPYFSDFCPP
T3 sequence (Q15078 99-307 partner limits assumed): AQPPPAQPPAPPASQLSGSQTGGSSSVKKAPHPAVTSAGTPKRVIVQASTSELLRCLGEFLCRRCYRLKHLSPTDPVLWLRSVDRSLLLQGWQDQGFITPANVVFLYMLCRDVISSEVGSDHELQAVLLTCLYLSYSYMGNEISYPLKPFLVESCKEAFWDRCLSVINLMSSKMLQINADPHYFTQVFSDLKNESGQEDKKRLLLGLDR
In short: as §1

OVCAR-3 = OVCAR-3 viability assay (CellTiter-Glo, 72 hours); format: cell-based; conditions: Homo sapiens; OVCAR-3 cells
Description: as §2, §3

CDK1/Cyclin B = target: T4, CDK1/Cyclin B (Homo sapiens, UniProt P06493); assay: Enzymatic assay for CDK1 (LANCE Ultra kinase assay, FRET based); format: biochemical; conditions: ATP at Km; read-out: CDK1 enzymatic activity IC50
T4 construct: purchased Invitrogen PR4768C
T4 sequence (P06493 whole entry): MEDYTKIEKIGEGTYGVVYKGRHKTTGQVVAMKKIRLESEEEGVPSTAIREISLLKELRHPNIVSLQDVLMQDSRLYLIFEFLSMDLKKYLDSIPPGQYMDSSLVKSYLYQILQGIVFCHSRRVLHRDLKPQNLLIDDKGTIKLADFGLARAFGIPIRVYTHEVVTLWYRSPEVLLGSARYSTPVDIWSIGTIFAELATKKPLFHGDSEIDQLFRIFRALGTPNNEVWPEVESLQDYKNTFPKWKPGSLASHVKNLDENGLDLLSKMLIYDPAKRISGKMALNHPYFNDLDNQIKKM
T4 sequence (P14635 whole entry partner): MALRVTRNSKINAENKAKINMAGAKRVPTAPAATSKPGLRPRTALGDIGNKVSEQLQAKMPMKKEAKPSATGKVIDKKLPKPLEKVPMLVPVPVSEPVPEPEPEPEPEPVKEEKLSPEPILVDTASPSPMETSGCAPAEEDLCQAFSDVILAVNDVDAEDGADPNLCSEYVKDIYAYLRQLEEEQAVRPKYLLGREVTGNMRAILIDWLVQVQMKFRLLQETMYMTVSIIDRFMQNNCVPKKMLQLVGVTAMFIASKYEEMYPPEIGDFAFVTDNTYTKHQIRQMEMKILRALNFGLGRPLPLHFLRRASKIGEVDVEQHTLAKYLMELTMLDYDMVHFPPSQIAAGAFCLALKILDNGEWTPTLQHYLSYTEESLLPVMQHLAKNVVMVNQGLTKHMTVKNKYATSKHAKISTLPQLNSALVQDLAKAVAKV
In short: as §4

| SMILES | IC50 (CDK2/Cyclin A) [nM] | IC50 (A2780) [nM] | IC50 (CDK7/Cyclin H/MNAT1) [nM] | CDK1/CDK7: Selectivity of CDK7 inhibition over CDK1 inhibition (CDK7/Cyclin H/MNAT1) | CDK2/CDK7: Selectivity of CDK7 inhibition over CDK2 inhibition (CDK7/Cyclin H/MNAT1) | CDK5/CDK7: Selectivity of CDK7 inhibition over CDK5 inhibition (CDK7/Cyclin H/MNAT1) | IC50 (CDK5/p25) [nM] | IC50 (OVCAR-3) [nM] | IC50 (CDK1/Cyclin B) [nM] |
| --- | --- | --- | --- | --- | --- | --- | --- | --- | --- |
| C=C(F)C(=O)Nc1ccc2c(-c3ccccc3CNc3nc(N4CCC(OC)CC4)nc4c(C(C)C)cnn34)nccc2c1 [Compound 88] | > 1000 | < 1000 | 100 to 1000 | B (B indicates 50 < [fold] ≤ 500) | B (B indicates 50 < [fold] ≤ 500) | B (B indicates 50 < [fold] ≤ 500) | > 1000 | < 1000 | > 1000 |
| C=C(F)C(=O)Nc1ccc2c(-c3ccccc3CNc3nc(OC4CCC(C)(C)NC4)nc4c(C(C)C)cnn34)nccc2c1 (centres unmarked) [Compound 177] | > 1000 | < 1000 | < 100 | A (A indicates [fold] > 500) | A (A indicates [fold] > 500) | A (A indicates [fold] > 500) | > 1000 | < 1000 | > 1000 |
| CC(C)c1cnn2c(NCc3ccccc3-c3nccc4cc(NC(=O)/C=C/CN(C)C)ccc34)nc(N3CCC4(CC3)OCCO4)nc12 [Compound 110] | > 1000 | < 1000 | < 100 | B (B indicates 50 < [fold] ≤ 500) | B (B indicates 50 < [fold] ≤ 500) | B (B indicates 50 < [fold] ≤ 500) | > 1000 | < 1000 | > 1000 |
| CC(C)c1cnn2c(NCc3ccccc3-c3nccc4cc(NC(=O)/C=C/CN(C)C)ccc34)cc(NC3CCC(F)(F)CC3)nc12 [Compound 185] | > 1000 | < 1000 | < 100 | A (A indicates [fold] > 500) | A (A indicates [fold] > 500) | A (A indicates [fold] > 500) | > 1000 | – | > 1000 |
| C=CC(=O)Nc1ccc2c(-c3ccccc3CNc3cc(NC4CCC(C)(C)NC4)nc4c(C(C)C)cnn34)nccc2c1 (centres unmarked) [Compound 184] | > 1000 | < 1000 | < 100 | A (A indicates [fold] > 500) | A (A indicates [fold] > 500) | A (A indicates [fold] > 500) | > 1000 | – | > 1000 |
| C=CC(=O)Nc1ccc2c(-c3ccccc3CNc3cc(NC4CCC(F)(F)CC4)nc4c(C(C)C)cnn34)nccc2c1 [Compound 186] | > 1000 | < 1000 | < 100 | A (A indicates [fold] > 500) | A (A indicates [fold] > 500) | A (A indicates [fold] > 500) | > 1000 | – | > 1000 |
| C=CC(=O)Nc1ccc2c(-c3ccccc3CNc3nc(NCc4cnc(C)s4)nc4c(C(C)C)cnn34)nccc2c1 [Compound 196] | > 1000 | 1000 to 10000 | > 1000 | C (C indicates [fold] ≤ 50) | C (C indicates [fold] ≤ 50) | C (C indicates [fold] ≤ 50) | > 1000 | – | > 1000 |
| C=CC(=O)Nc1ccc2c(-c3ccccc3CNc3cc(C4CC4)nc4c(C(C)C)cnn34)nccc2c1 [Compound 197] | > 1000 | < 1000 | < 100 | A (A indicates [fold] > 500) | A (A indicates [fold] > 500) | A (A indicates [fold] > 500) | > 1000 | – | > 1000 |
| C=C(F)C(=O)N1CCc2c(ccnc2-c2ccccc2CNc2nc(OC3CCC(C)(C)NC3)nc3c(C(C)C)cnn23)C1 (centres unmarked) [Compound 199] | > 1000 | < 1000 | < 100 | A (A indicates [fold] > 500) | A (A indicates [fold] > 500) | A (A indicates [fold] > 500) | > 1000 | – | > 1000 |
| C=CC(=O)Nc1ccc2c(-c3ccccc3CNc3cc(Nc4cccc(OC5CCC(C)(C)NC5)c4)nc4c(C(C)C)cnn34)nccc2c1 (centres unmarked) [Compound 187] | > 1000 | < 1000 | < 100 | A (A indicates [fold] > 500) | A (A indicates [fold] > 500) | A (A indicates [fold] > 500) | > 1000 | – | > 1000 |
| C=C(Cl)C(=O)Nc1ccc2c(-c3ccccc3CNc3nc(N[C@H]4CC[C@H](OC)CC4)nc4c(C(C)C)cnn34)nccc2c1 [Compound 209] | > 1000 | < 1000 | < 100 | A (A indicates [fold] > 500) | A (A indicates [fold] > 500) | A (A indicates [fold] > 500) | > 1000 | – | > 1000 |
| C=CC(=O)Nc1ccc2c(-c3ccccc3CNc3nc(NC4CCC(C)(C)NC4)nc4c(C(F)(F)F)cnn34)nccc2c1 (centres unmarked) [Compound 215] | > 1000 | < 1000 | < 100 | A (A indicates [fold] > 500) | A (A indicates [fold] > 500) | A (A indicates [fold] > 500) | > 1000 | – | > 1000 |
| C=CC(=O)Nc1ccc2c(-c3ccccc3CNc3nc(Nc4ccncc4)nc4c(C(C)C)cnn34)nccc2c1 [Compound 189] | > 1000 | 1000 to 10000 | 100 to 1000 | B (B indicates 50 < [fold] ≤ 500) | B (B indicates 50 < [fold] ≤ 500) | B (B indicates 50 < [fold] ≤ 500) | > 1000 | – | > 1000 |
| C=C(Br)C(=O)Nc1ccc2c(-c3ccccc3CNc3nc(NC[C@H]4CCNC[C@@H]4O)nc4c(C(C)C)cnn34)nccc2c1 [Compound 205] | > 1000 | < 1000 | < 100 | B (B indicates 50 < [fold] ≤ 500) | B (B indicates 50 < [fold] ≤ 500) | B (B indicates 50 < [fold] ≤ 500) | > 1000 | – | > 1000 |
| C=CC(=O)Nc1ccc2c(-c3cccc(C(F)(F)F)c3CNc3nc(Nc4cccnc4)nc4c(C(C)C)cnn34)nccc2c1 [Compound 213] | > 1000 | 1000 to 10000 | > 1000 | C (C indicates [fold] ≤ 50) | C (C indicates [fold] ≤ 50) | C (C indicates [fold] ≤ 50) | > 1000 | – | > 1000 |
| C=C(F)C(=O)N1CCc2c(cccc2-c2ccccc2CNc2nc(N[C@@H]3CCCNC3)nc3c(C(C)C)cnn23)C1 [Compound 192] | > 1000 | < 1000 | < 100 | A (A indicates [fold] > 500) | A (A indicates [fold] > 500) | A (A indicates [fold] > 500) | > 1000 | – | > 1000 |
